The values that follow come from patent US6413983B1, “Benzopyranyl heterocycle derivatives, process for preparation thereof, and pharmaceutical compositions containing them” (Dongbu Hannong Chemical Co. Ltd., priority 2000, dated 2002).

Broadly, the pIC50 is the IC50 on a negative log10 scale, so that one unit is a factor of ten. A low value points to a large IC50.

pIC50: −log10 of the molar value. Bounds are passed on as bounds.

The subject of assay [1] is cerebral cortical neurons. The experiment in a line: Protective activity for neuronal cells against iron-induced damage (LDH release). In kind it is cell-based, rat. To be noted: 30 μM compound, 50 uM FeSO4, 24 hours, LDH reduction rate vs control. As to the method: From the brains of 17-18 day-old rat embryos, cerebral cortical neurons were isolated and then, cultured at 37° C. for 7-9 days in a 5% CO2 incubator. The cortical cell cultures were washed twice with a minimum essential medium (MEM) to reduce the serum concentration to 0.2% and pre-treated for 30 min with 30 μM of each of test compounds. For the experiments, the test compounds were dissolved in DMSO and diluted in a medium. At this time, the final concentration of DMSO was not allowed to exceed 0.2%. For a control group, only vehicle was applied.
After the pre-treatment with test compounds or vehicle, FeSO4 was added to a final concentration of 50 uM, and the cultures were maintained for 24 hours in a CO2 incubator. During incubation, lactate dehydrogenase (LDH) was released into the medium upon neuronal death by the oxidative toxicity of iron. The extent of neuronal damage was assessed by measuring the amount of LDH released into the media. The protective effect of the compounds of interest on neurons was evaluated by calculating the LDH reduction rate of treatment group compared with that of the control group.
In general terms: LDH leaks from cells whose membrane has failed.

The subject of assay [2] is isolated rat aorta constricted with methoxamine. The experiment in a line: Vasodilation effects on isolated aorta of rats (methoxamine-constricted rings). To be noted: isolated rat aorta constricted with methoxamine (3 μM); 50% relaxation.
Source text: Male Sprague-Dawly rats (350-450 g, obtained from the Experimental Animal Team of the Korea Research Institute of Chemical Technology) were knocked unconscious by hitting the occipital region, sacrificed by cervical dislocation, and underwent thoracotomy. After being quickly removed, the thoracic aorta was deprived of the adipose tissue and cut into aortic rings of 3 mm width. The aorta was lightly rubbed with cotton club soaked in a modified Krebs Henseleit buffer (Physiological Salt Solution, PSS) to remove the inner epithelial layer therefrom.
Thereafter, 3×10^−6 M methoxamine was applied to induce an intensive constriction in the vascular smooth muscle. When the vasoconstriction induced by the methoxamine was reached and maintained to a maximum, test compounds and controls were cumulatively added to the organ baths in concentrations of 1, 3, 10 and 30 μM so as to examine the vasodilation effect.
The change rate of constriction by the addition of the drugs compared to the maximal constriction induced by methoxamine was calculated to plot a concentration-relaxation response curve.
Another assay relates to isolated rat hearts. Description: Cardioprotective activity in isolated ischemic heart models of rats (Langendorff, global ischemia/reperfusion). As to conditions: 10 μM; for LDH (U/g): cumulative reperfusion LDH release; for EDP (MmHg): left ventricular end-diastolic pressure after 30 min reperfusion; for LDVP × HR (%): reperfusion double product as % of pretreatment DP, 30 min global ischemia, 30 min reperfusion; for TTC: time to contracture during global ischemia. As to the method:
Male Sprague-Dawley rats weighing 300-450 g were anesthetized with sodium pentobarbital (100 mg/kg, i.p.). The tail vein was injected with heparin (1,000 U/kg) and then the trachea was intubated. […] A latex balloon filled with solvent (ethanol: water=1:1 (v/v)) and attached to a metal cannula was placed in the left ventricle through pulmonary vein and connected to a Isotec pressure transducer (H.S.E., Germany) for measurement of left ventricular pressure (LVP). […] Then, baseline contractile function, heart rate (HR), and coronary flow (CF) (extracorporeal electromagnetic flow probe, Narco Bio-System, U.S.A.) were measured. Cardiac contractile function was calculated by subtracting LVEDP from LV peak systolic pressure (LVSP), yielding developed pressure (LVDP). Double product (DP), another important parameter for assessing cardiac performance, was calculated by multiplying HR by LVDP. Throughout the experiment, all these parameters were measured, and calculated before and 10 min after pretreatment with each compound and 30 min after the onset of reperfusion with buffer. Data on reperfusion DP were further expressed as the percentage to pretreatment DP.
We then rendered the hearts globally ischemic by completely shutting off the perfusate for 30 min. Severity of ischemia was determined as the time to contracture (TTC, min) during global ischemia in which the first 5 mmHg increase in EDP was observed. Then, the hearts were reperfused and, 30 min later, contractile function (LVDP, DP) and cumulative reperfusion lactate dehydrogenase (LDH) release were measured. LDH was measured as a sensitive index for loss of cell viability with a kit supplied by Boerhinger Mannheim based on the technique of Wroblewski and LaDue [F. Wroblewski and JS.

`CCOC(=O)[C@@H]1Cc2cc(F)ccc2N1[C@H]1c2cc([N+](=O)[O-])ccc2O[C@](C)(C(OC)OC)[C@@H]1O` [Example 16, 1-[(2S, 3R, 4S)-3,4-dihydro-2-dimethoxymethyl-3-hydroxy-2-methyl-6-nitro-2H-1-benzopyran-4-yl]-(2S)-2,3-dihydro-1H-5-fluoroindole-2-carboxylic acid ethyl ester]: the “% Protection” value in assay [1] is on record as 73%.
For the compound `CCOC(=O)[C@H]1Cc2cc(F)ccc2N1[C@H]1c2cc([N+](=O)[O-])ccc2O[C@](C)(C(OC)OC)[C@@H]1O` [Example 15, 1-[(2S, 3R,4S)-3,4-dihydro-2-dimethoxymethyl-3-hydroxy-2-methyl-6-nitro-2H-1-benzopyran-4-yl]-(2R)-2,3-dihydro-1H-5-fluoroindole-2-carboxylic acid ethyl ester], in assay [2], the pIC50 was less than 4.52. Moreover, in the assay on isolated rat hearts, the “LDH (U/g)” value is 12.0 U/g, the “EDP (MmHg)” value came to 2.7 MmHg, the “LDVP × HR (%)” value is reported as 53.3% and the “TTC” value is listed as 24.8 min.
Taken in the same sequence, the figures for `COC(=O)[C@@H]1Cc2ccccc2N1[C@H]1c2cc([N+](=O)[O-])ccc2O[C@](C)(C(OC)OC)[C@@H]1O` [Example 6, 1-[(2S, 3R, 4S)-3,4-dihydro-2-dimethoxymethyl-3-hydroxy-2-methyl-6-nitro-2H-1-benzopyran-4-yl]-1H-(2S)-2,3-dihydroindole-2-carboxylic acid methyl ester] were 4.81, 10.4 U/g, 21 MmHg, 62.2% and 24.5 min.
The corresponding values for “(2S, 2aR, 10aS)-[(3,4-b)-2a,10a-dihydro-2-dimethoxymethyl-2-methyl-12-nitro-2H-1-benzopyrano]-[(1,2-d)-10H-indolino]-4-oxomorpholine [Example 62]” are less than 4.52, 20.5 U/g, 36.5 MmHg, 67.2% and 23.1 min.
Compound `CC1(C)Oc2ccc(C#N)cc2C(N2CCCC2=O)C1O` (stereo not drawn) [CromaKalim, Cromakalim, reference compound] gave a negative logarithm of the IC50 (pIC50) in assay [2] of 7.17.
Consider `CCOC(=O)[C@@H]1Cc2cc(OC)ccc2N1[C@H]1c2cc([N+](=O)[O-])ccc2O[C@](C)(C(OC)OC)[C@@H]1O` [Example 12, 1-[(2S, 3R, 4S)-3,4-dihydro-2-dimethoxymethyl-3-hydroxy-2-methyl-6-nitro-2H-1-benzopyran-4-yl]-(2S)-2,3-dihydro-1H-5-methoxyindole-2-carboxylic acid ethyl ester], for which the “% Protection” value in assay [1] is listed as 85%.
For `CCOC(=O)[C@@H]1Cc2ccccc2N1[C@@H]1c2cc([N+](=O)[O-])ccc2O[C@](C)(C(OC)OC)[C@H]1O` [Example 4, 1-[(2S, 3S, 4R)-3,4-dihydro-2-dimethoxymethyl-3-hydroxy-2-methyl-6-nitro-2H-1-benzopyran-4-yl]-(2S)-2,3-dihydro-1H-indole-2-carboxylic acid ethyl ester], in assay [1] (listed as EX. 4), the “% Protection” value came to 98%.
Take `COC(=O)[C@H]1CCc2ccccc2N1[C@H]1c2cc([N+](=O)[O-])ccc2O[C@](C)(C(OC)OC)[C@@H]1O` [Example 54, 1-[(2S, 3R, 4S)-3,4-dihydro-2-dimethoxymethyl-3-hydroxy-2-methyl-6-nitro-2H-1-benzopyran-4-yl]-(2R)-1,2,3,4-tetrahydro-1H-quinoline-2-carboxylic acid methyl ester]: the “% Protection” value came to 100% in assay [1] and 101% in assay [1] (listed as EX. 54).
In the case of `COC(=O)[C@H]1CCc2ccccc2N1[C@@H]1c2cc([N+](=O)[O-])ccc2O[C@](C)(C(OC)OC)[C@H]1O` [Example 56, 1-[(2S, 3S, 4R)-3,4-dihydro-2-dimethoxymethyl-3-hydroxy-2-methyl-6-nitro-2H-1-benzopyran-4-yl]-(2R)-1,2,3,4-tetrahydro-1H-quinoline-2-carboxylic acid methyl ester], the pIC50 in assay [2] was 4.94. For the same compound, in the assay with isolated rat hearts, the “LDH (U/g)” value was 18.8 U/g, the “EDP (MmHg)” value was 29.0 MmHg, the “LDVP × HR (%)” value is listed as 61.0% and the “TTC” value was 22.2 min.
`COC(=O)c1cc2ccccc2n1[C@H]1c2cc([N+](=O)[O-])ccc2O[C@](C)(C(OC)OC)[C@@H]1O` [Example 48, 1-[(2S, 3R, 4S)-3,4-dihydro-2-dimethoxymethyl-3-hydroxy-2-methyl-6-nitro-2H-1-benzopyran-4-yl]-1H-indole-2-carboxylic acid methyl ester] showed a pIC50 in assay [2] of 4.62. Moreover, in the assay on isolated rat hearts, the “LDH (U/g)” value is listed as 16.7 U/g, the “EDP (MmHg)” value was 9.5 MmHg, the “LDVP × HR (%)” value came to 79.5% and the “TTC” value came out at 22.0 min.
For the compound `COC(=O)[C@H]1Cc2ccccc2N1[C@H]1c2cc([N+](=O)[O-])ccc2O[C@](C)(C(OC)OC)[C@@H]1O` [Example 5, 1-[(2S, 3R, 4S)-3,4-dihydro-2-dimethoxymethyl-3-hydroxy-2-methyl-6-nitro-2H-1-benzopyran-4-yl]-1H-(2R)-2,3-dihydroindole-2-carboxylic acid methyl ester], the “% Protection” value in assay [1] amounted to 79%.
For “(2S, 2aS, 10aR)-[(3,4-b)-2a,10a-dihydro-2-dimethoxymethyl-2-methyl-12-nitro-2H-1-benzopyrano]-[(1,2-d)-10H-indolino]-4-oxomorpholine [Example 63]”, in assay [1], the “% Protection” value is on record as 100%.
